Results taken from PMC8512812, “Clerodane Diterpenoids from an Edible Plant Justicia insularis: Discovery, Cytotoxicity, and Apoptosis Induction in Human Ovarian Cancer Cells” (Molecules, 2021).
Where two headings read alike, the source gives them in different places.

Legend:
Hela cells = system: Hela cells; set-up: method as in PMID 32213364; conditions: from the leaves of Casearia kurzii; read-out: IC50 against Hela cells; cited from earlier work
[1] = system: caspase 3/7 in OVCAR-4 cells; test: Caspase-Glo 3/7 activity assay; format: cell-based, human; conditions: 10, 20 and/or 30 μM, 48 h, vs control, one-way ANOVA
Description: (§1) Caspase 3/7 activities was measured using assay kits caspase-Glo 3/7 (Promega Corp., Madison, WI, USA) on a 96-well microplate. Briefly, the cells (OVCAR-4 and OVCAR-8) were seeded in 96 well plates at a cell density of 5000 cells/well in 80 μL growth media and exposed to 10, 20 and/or 30 μM of the natural compounds after 24 h incubation. After 48 h exposure to compound treatments, 25 μL of Caspase 3/7 Glo-reagent was added, and the cells were incubated in the dark at room temperature for 30 min on a gentle rocker. The luminescence was measured at […] by a BioTEK Synergy microplate reader (USA). A similar procedure was followed for caspase 8 and caspase 9 activity.

[2] = system: caspase 3/7 in OVCAR-8 cells; test: Caspase-Glo 3/7 activity assay; format: cell-based, human; conditions: 10, 20 and/or 30 μM, 48 h, vs control, one-way ANOVA
Description: as §1

OVCAR-4 cells = test: Sulforhodamine B (SRB) cell growth inhibitory assay; format: cell-based, human
Description: (§2) The human ovarian cancer cell lines and normal human ovarian surface epithelial (HOE) cells were used in this study. Ovarian cancer cell lines (OVCAR-4 and OVCAR-8) were products of American tissue culture collection (ATCC). The HOE cells were purchased from Applied Biological Materials (ABM) Inc. (Vancouver, BC, Canada). The Rosewell Park Memorial Institute (RPMI 1640, Lonza) medium was used in the culturing of OVCAR-4, OVCAR-8, and HOE cells. The medium was supplemented with 2 mM glutamine, 10% foetal bovine serum (FBS), and 50 µg/mL penicillin streptomycin. These cells were incubated in a standard humidified incubator) at 37 °C, 5% carbon dioxide (CO2) conditions.
(§3) Sulforhodamine B (SRB) assay was used to determine the inhibition of cell proliferation by the studied compounds and plant extracts. Plant extracts/fractions (100 mg/mL) and pure compounds (20 mM) were prepared in DMSO. The 0.2% DMSO in growth media was added to the cells as vehicle-treated cells (negative control) while carboplatin was used as positive control. In the SRB assay, OVCAR-4, OVCAR-8, and HOE cells were seeded in 80 µL growth medium per each well in 96 well plates. OVCAR-4 and HOE were seeded at a density of 5000 cells per well while OVCAR-8 was seeded at a density of 2000 cells per well. The seeded plates were incubated for 24 h, after which 20 μL of plant extracts and natural compounds 1000 µg/mL and 200 µM (and their serial two-fold dilutions), respectively, were added at the indicated concentrations. The cell cultures were incubated at 37 °C under 5% CO2 for 72 h in a humidified atmosphere.
(§4) After 72 h, the medium was decanted, and the cells fixed with 0.1 mL of 10% TCA on ice for 30 min before drying. The cells were stained with 0.4% SRB, washed with 1% acetic acid three times and dried. Then, 0.1 mL of Tris-base (10 mM) was added to the plates to solubilise the protein-bound SRB dye. The absorbance at 570 nm was measured using a spectroscopic plate reader (Multi-mode microplate reader BioTEK Synergy 2, Winooski, VT, USA). The data were analysed by non-linear regression to fit a 4-parameter sigmoidal dose–response curve to determine IC50 values using GraphPad PRISM 6.0 software, Inc. (San Diego, CA, USA).
(§5) The IC50s were obtained from at least three repeated experiments. The mean IC50 was calculated, and the standard error of mean (SEM) was determined. Furthermore, a one way analysis of variance (ANOVA) and student t test were used to test if the difference in the mean of control and treatments and mean of treatment at different concentration were significant. A post hoc Dunnett test was used to determine which of the treatments was significant to the control while a Tukey test was used to determine which of the concentrations of a particular treatment were significant using GraphPad prism 6.

OVCAR-8 cells [3] = test: as above; format: cell-based, human; conditions: for SI against OVCAR-8: ratio of IC50 against HOE cells to IC50 against OVCAR-8
Description: as §2, §3, §4, §5

[4] = system: HOE cells (normal human ovarian surface epithelial); test: as above; format: cell-based; conditions: for IC50: SRB, 72 h; for cytotoxic activity against HOE cells: compared with OVCAR-4 and OVCAR-8
Description: as §2, §3, §4, §5

[5] = system: OVCAR-4 and OVCAR-8 cells; test: SRB cell growth assay, result stated jointly for both cancer lines; format: cell-based, human; conditions: span over the two cell lines, read-out: IC50 against OVCAR-4 and OVCAR-8 cells
Description: as §2, §3, §4, §5

[6] = system: caspase 9 in OVCAR-8 cells; test: Caspase-Glo 9 activity assay; format: cell-based, human
Description: as §1

OVCAR-8 cells [7] = test: Annexin V-FITC / propidium iodide flow cytometry; format: cell-based, human; conditions: 5, 10, and 20 µM, 48 h treatment
Description: The in vitro method of fluorescence-activated cell sorting (FACS) by Annexin V and propidium iodide (PI) staining was used to detect the change of cell population as reported. OVCAR-8 cells were seeded in 12 well plates at a density of 2 × 10^5 cells per well in 1 mL of growth media and incubated for 24 h before treatment with the tested compound and positive control. After treatment for 48 h, media were decanted into 15 mL tubes, and cell pellets were collected into the same tubes by trypsinisation, the cells were centrifuged at 150× g for 3 min and re-suspended into 1 mL growth media, which was transferred into sterile 2 mL Eppendorf tube, centrifuged at 300× g for 5 min at 4 °C. The media were aspirated, and the pellet was washed in cold PBS. The cells were centrifuged under the same conditions and the supernatant aspirated. Cells were washed in 500 µL annexin-V binding buffer and centrifuged at 300× g for 10 min, annexin-V binding buffer was aspirated, and the cell pellet was treated with 10 µL of annexin V-FITC in 100 µL of binding buffer. The cells were thoroughly mixed and incubated in the dark at room temperature for 15 min. After incubation, cells were washed in binding buffer and centrifuged at 300× g for 10 min. The buffer was aspirated, and cells were suspended in 500 µL binding buffer and subsequently 5 µL of PI was added for flow cytometry analysis.

[8] = system: caspase 8 in OVCAR-8 cells; test: Caspase-Glo 8 activity assay; format: cell-based, human
Description: as §1

[9] = Thermal stability (GC-MS conditions; heating followed by HPLC); format: physicochemical
Description: Briefly, 1.0–2.0 mg of the bioactive fractions and isolated compounds of J. insularis were dissolved in 200 μL of ethyl acetate and sonicated at <40 °C for 5 min. 1–2 μL of the solution was subsequently injected into gas chromatography mass spectrometry (GC-MS) system consisting of an Agilent 7890 coupled to Agilent MS model 5975C MSD (Agilent Technologies, Cold Spring, NY, USA). The gas chromatography started at 60 °C for 2 min and increased to 300 °C at the rate of 10 °C/min, which was held at 300 °C for 4 min at a constant helium pressure (10 psi). The mass spectra data were acquired in the scan mode in m/z range 40–1000.
The molecular formula of 1 was determined as C20H30O3 based on the observed molar mass of compound 1 (found, 318.2123 Da) by LC-HR-MS (Figure S4). […] The other observed compounds, 1a and 1b (Figure S5), were determined to be the thermal degradation products of compound 1 due to the presence of a γ–hydroxy unsaturated 5-membered lactone moiety (Figure 1) under high temperature conditions (60 °C–300 °C) for 30 min of GC-MS. […] Furthermore, the percentage of compound 1 in organic extracts was determined to be 34%. Thus, the composition of compound 1 in the plant material is 0.7% (dry weight), a very abundant secondary metabolite in the leave of J. insularis.

[10] = Homo sapiens, OVCAR-4, 72 h, mean ± SEM, read-out: growth inhibitory activity, IC50, OVCAR-4
[11] = Homo sapiens, OVCAR-4, 72 h, same IC50 given in μg/mL, read-out: growth inhibitory activity, IC50, OVCAR-4, in parentheses (converted)
[12] = Homo sapiens, OVCAR-8, SRB, 72 h, mean ± SEM, read-out: growth inhibitory activity, IC50, OVCAR-8
[13] = Homo sapiens, OVCAR-8, SRB, 72 h, same IC50 given in μg/mL, read-out: growth inhibitory activity, IC50, OVCAR-8, in parentheses (converted)
[14] = Homo sapiens, mean ± SEM, read-out: growth inhibitory activity, IC50, HOE
[15] = Homo sapiens, same IC50 given in μg/mL, read-out: growth inhibitory activity, IC50, HOE, in parentheses (converted)

Row | Compound | caspase 3/7 activities [1] | caspase 3/7 activities [2] | IC50 (OVCAR-4 cells; [10]) | IC50 (OVCAR-4 cells; [11]) | IC50 (OVCAR-8 cells [3]; [12]) | IC50 (OVCAR-8 cells [3]; [13]) | SI against OVCAR-8 (OVCAR-8 cells [3]) | IC50 [4, 14] | IC50 [4, 15] | cytotoxic activity against HOE cells [4] | IC50 ([5]; Homo sapiens) | IC50 [5] | also measured
1 | Kurzipene B | – | – | – | – | – | – | – | – | – | – | – | – | IC50 (Hela cells): 5.3 µM
2 | CC1=CCC[C@@H]2[C@@](C)(CC/C(C=O)=C\C(=O)O)[C@H](C)CC[C@@]12C [Compound 2, 16-oxo-cleroda-3,13(14)E-dien-15-oic acid] | significantly increased | significantly increased | 16.6 ± 2.8 µM | 5.3 µg/mL | 11.8 ± 0.5 µM | 3.8 µg/mL | 2 | 22.8 ± 0.7 µM | 7.3 µg/mL | less cytotoxic activity | 12 to 17 µM | – | –
3 | N.N.O=C([O-])C1(C(=O)[O-])CCC1.[Pt+2] [Carboplatin, carboplatin, reference compound] | – | – | – | – | – | – | 1.6 | – | – | – | – | 8 to 18 µM | IC50 (OVCAR-4 cells; 72 h, mean ± SEM, read-out: growth inhibitory activity, IC50, OVCAR-4): 17.6 ± 4.6 µM; IC50 (OVCAR-8 cells [3]; SRB, 72 h, mean ± SEM, read-out: growth inhibitory activity, IC50, OVCAR-8): 8.2 ± 2.2 µM; IC50 ([4]; mean ± SEM, read-out: growth inhibitory activity, IC50, HOE): 13 ± 3.7 µM
4 | CC1=CCC[C@@H]2[C@@](C)(CCC3=CC(=O)OC3O)[C@H](C)CC[C@@]12C (mixture of isomers) [Compound 1, 16(α/β)-hydroxy-cleroda-3,13(14)Z-dien-15,16-olide] | significantly increased | significantly increased | 5.7 ± 0.3 µM | 1.8 µg/mL | 4.4 ± 0.2 µM | 1.4 µg/mL | 3 | 12.1 ± 0.1 µM | 3.9 µg/mL | less cytotoxic activity | 4 to 6 µM | < 6 µM | caspase 9 activity [6]: increased; percentage of early and late apoptosis (OVCAR-8 cells [7]): concentration-dependent and significant increase; caspase 8 activity [8]: increased; IC50 (OVCAR-8 cells [3]; Homo sapiens, OVCAR-8, Figure S1 scheme, read-out: IC50 in OVCAR-8 (Figure S1)): 1.42 µg/mL; thermal stability, HPLC after heating ([9]; 200 °C for 0.5 h followed by HPLC analysis): formation of new products; thermal stability ([9]; at a high temperature): thermally unstable
